Values belong to the compound of their own block, whether it stands above or below them. Activity calls are given as the source filed them.
Tests used:
[1] = target: T1, ORF 73 (Human herpesvirus 8, UniProt O40947); experiment: KSHV LANA DNA-binding disruption – biochemical, fluorescence polarization, cherry-picked samples, dose response (AID 504725); set-up: species or system Human gammaherpesvirus 8;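 further: fluorescence polarization of a labeled DNA duplex reporting LANA DNA binding; potency is for inhibitors that block LANA binding to the DNA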
T1 sequence (O40947 whole entry): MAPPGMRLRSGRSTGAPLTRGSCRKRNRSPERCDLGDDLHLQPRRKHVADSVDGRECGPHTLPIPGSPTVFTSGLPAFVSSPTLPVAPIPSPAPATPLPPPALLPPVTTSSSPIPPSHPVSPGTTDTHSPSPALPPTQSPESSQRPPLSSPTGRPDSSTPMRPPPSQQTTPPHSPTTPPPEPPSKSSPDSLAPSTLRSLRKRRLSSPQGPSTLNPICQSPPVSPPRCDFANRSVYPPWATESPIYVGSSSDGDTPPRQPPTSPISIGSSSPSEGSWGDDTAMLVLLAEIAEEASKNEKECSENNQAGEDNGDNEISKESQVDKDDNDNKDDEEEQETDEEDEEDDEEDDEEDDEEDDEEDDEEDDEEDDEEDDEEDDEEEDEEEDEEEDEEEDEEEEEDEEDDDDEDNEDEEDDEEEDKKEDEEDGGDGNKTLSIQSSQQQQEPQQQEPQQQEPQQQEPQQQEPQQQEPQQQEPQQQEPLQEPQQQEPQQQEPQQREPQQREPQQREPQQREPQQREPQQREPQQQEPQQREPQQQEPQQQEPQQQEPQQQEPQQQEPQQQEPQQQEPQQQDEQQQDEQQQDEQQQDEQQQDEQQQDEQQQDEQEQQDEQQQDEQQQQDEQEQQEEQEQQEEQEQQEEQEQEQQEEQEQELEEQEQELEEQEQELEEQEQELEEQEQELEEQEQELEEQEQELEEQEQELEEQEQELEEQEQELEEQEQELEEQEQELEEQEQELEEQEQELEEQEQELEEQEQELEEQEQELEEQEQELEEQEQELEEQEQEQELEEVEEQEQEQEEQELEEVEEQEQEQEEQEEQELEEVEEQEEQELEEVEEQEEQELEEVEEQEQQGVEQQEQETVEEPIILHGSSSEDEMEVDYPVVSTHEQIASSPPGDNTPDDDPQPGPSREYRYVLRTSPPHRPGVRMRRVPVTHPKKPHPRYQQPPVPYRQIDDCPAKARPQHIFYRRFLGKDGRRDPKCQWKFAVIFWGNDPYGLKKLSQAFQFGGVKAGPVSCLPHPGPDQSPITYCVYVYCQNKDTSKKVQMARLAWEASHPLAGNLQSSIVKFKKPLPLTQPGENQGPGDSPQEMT

[2] = system: HeLa; experiment: viability loss in HeLa cells – cell-based, 24 h, cherry-picked samples, cytotoxicity control, dose response (AID 504726); type: functional; conditions: Homo sapiens;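 further: potency for cytotoxicity as loss of luminescence signal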
[3] = target: T2, Serine/threonine-protein phosphatase (Candida dubliniensis (strain CD36 / CBS 7987 / NCPF 3949 / NRRLY-17841) (Yeast), UniProt B9W6M3); experiment: blockers of CaCl2-induced CDRE-lacZ signaling – S. cerevisiae, luminescence, secondary, dose response (AID 2388); type: functional, cell-based;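 further: yeast reporter cells carrying a calcineurin-responsive lacZ construct stimulated with calcium chloride; luminescent beta-galactosidase reporter signal in whole cells rather than isolated phosphatase activity; potency for inhibition where a drop in reporter signal means calcineurin blockade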
T2 sequence (B9W6M3 whole entry): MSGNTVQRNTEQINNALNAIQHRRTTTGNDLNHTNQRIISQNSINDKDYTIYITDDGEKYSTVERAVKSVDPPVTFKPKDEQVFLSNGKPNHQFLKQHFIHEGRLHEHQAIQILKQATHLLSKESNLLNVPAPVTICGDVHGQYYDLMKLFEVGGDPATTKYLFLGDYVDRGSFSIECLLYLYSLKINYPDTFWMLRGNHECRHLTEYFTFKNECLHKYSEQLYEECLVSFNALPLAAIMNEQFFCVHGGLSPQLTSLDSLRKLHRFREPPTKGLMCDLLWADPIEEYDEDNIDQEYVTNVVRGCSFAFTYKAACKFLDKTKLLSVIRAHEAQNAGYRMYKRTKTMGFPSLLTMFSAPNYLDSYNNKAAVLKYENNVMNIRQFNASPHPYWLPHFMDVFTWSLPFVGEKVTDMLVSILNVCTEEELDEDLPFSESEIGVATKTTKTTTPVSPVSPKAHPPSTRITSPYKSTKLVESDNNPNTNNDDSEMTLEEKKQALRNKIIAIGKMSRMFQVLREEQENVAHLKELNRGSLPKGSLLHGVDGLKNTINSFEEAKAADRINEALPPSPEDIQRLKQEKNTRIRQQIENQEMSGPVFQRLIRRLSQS

[4] = fluconazole-exposed Candida albicans growth modulators – fluorescence, retest, confirmation (AID 2467); type: functional, cell-based
[5] = target: ATP-dependent molecular chaperone HSP82 (Candida albicans (strain WO-1) (Yeast), UniProt C4YTQ8); experiment: steroid-induced GRE reporter decrease in yeast – S. cerevisiae, luminescence, Hsp90 inhibitor project, dose response (AID 2400); type: functional, cell-based;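 further: beta-galactosidase luminescence from glucocorticoid response element reporter as proxy for Hsp90 function; inhibitor potency where signal loss means Hsp90 inhibition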
ATP-dependent molecular chaperone HSP82, sequence (C4YTQ8 whole entry): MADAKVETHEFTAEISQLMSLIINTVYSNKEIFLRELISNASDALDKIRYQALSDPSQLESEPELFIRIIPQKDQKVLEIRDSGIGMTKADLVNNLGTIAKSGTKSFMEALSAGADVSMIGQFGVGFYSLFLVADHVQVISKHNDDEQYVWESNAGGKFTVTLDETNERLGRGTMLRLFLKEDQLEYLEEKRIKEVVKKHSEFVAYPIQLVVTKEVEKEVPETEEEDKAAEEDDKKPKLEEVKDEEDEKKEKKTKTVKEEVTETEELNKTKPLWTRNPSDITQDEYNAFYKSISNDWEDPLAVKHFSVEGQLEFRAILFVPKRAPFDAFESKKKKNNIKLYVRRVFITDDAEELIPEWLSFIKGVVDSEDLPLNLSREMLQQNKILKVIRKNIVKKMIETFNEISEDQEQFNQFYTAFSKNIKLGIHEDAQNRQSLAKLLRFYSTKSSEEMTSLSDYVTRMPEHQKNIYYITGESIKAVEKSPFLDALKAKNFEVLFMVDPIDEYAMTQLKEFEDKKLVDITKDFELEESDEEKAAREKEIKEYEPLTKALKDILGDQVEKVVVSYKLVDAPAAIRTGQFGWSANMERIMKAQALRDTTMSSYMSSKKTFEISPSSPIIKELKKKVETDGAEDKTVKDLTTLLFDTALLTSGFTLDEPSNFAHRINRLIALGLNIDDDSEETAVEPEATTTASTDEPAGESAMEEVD

[6] = target: FAD-linked sulfhydryl oxidase ALR (Homo sapiens, UniProt P55789); experiment: ALR-catalysed DTT oxidation blockers – biochemical, H2O2 detection, luminescence, cherry-pick, dose response (AID 493248)
FAD-linked sulfhydryl oxidase ALR, sequence (P55789 whole entry): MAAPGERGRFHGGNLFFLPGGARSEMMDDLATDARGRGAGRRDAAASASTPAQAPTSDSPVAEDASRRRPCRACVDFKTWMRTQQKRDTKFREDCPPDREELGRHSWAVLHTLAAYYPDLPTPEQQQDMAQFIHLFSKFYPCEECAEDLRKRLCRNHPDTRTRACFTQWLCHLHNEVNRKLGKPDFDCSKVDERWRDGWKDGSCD

[7] = NIH-3T3 fibroblast cytotoxicity, dose response, cytotoxicity control, cell-based, fluorescence, Alamar Blue, secondary assay (AID 2327); type: functional;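 further: NIH-3T3 mouse fibroblasts cultured with fluconazole at 8 µg/mL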
[8] = system: Staphylococcus aureus; experiment: Inhibitors of Bacterial Quorum Sensing Structure Activity Relationship (SAR) Analysis: Dose Response Assay. [Related pubchem assays: 700, 527 ]; type: functional, organism-based
[9] = target: T3, Corticotropin-releasing factor receptor 2/Corticotropin-releasing factor-binding protein (Homo sapiens, UniProt P24387+Q13324); experiment: Dose Response confirmation of uHTS hits for small molecule antagonists of the CRF-binding protein and CRF-R2 receptor complex.; type: functional; conditions: read-out: IC50_Mean
T3 sequence (Q13324 whole entry): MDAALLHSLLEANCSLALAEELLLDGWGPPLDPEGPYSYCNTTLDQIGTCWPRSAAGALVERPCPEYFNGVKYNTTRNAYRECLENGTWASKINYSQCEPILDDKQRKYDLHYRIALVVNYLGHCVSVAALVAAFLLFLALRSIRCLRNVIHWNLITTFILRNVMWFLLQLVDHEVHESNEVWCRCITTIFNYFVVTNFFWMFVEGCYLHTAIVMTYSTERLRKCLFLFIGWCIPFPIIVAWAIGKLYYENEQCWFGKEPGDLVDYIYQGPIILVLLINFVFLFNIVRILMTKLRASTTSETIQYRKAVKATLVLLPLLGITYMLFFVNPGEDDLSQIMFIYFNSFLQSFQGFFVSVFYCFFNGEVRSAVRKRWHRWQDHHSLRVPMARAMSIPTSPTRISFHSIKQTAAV
T3 sequence (P24387 whole entry): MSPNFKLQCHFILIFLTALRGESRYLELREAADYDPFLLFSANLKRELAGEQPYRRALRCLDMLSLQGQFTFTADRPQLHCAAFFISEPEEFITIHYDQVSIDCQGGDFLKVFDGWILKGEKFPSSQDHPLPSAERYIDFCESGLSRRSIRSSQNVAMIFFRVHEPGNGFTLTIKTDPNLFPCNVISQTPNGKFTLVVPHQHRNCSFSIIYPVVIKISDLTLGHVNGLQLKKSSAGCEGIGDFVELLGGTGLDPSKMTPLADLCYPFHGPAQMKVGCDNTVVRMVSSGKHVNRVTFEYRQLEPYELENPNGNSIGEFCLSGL

[10] = HEK-293T cell viability reduction – luminescence, B-cell screen hits, cytotoxicity control for BCR NF-kB inhibitor project, dose response (AID 489021); type: functional, cell-based;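 further: HEK-293T cells carrying an NF-kB luciferase reporter; cells exposed to compound for about 14 hours before viability readout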
[11] = target: T3, Corticotropin-releasing factor receptor 2/Corticotropin-releasing factor-binding protein; experiment: activators of CRF receptor 2 with binding protein – uHTS hits, confirmation (AID 602473); type: functional; conditions: read-out: EC50_Mean
[12] = HIV-1 Vif–A3G interaction blockers – biochemical, TR-FRET, GST-Vif 1-94, biotin-A3G peptide, dose response retest, primary screen (AID 1117319); type: functional;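 further: TR-FRET signal of purified GST-Vif binding a biotinylated A3G peptide; inhibitors lower the FRET signal by blocking Vif and A3G binding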
[13] = viability loss in HeLa cells – cytotoxicity control for MgcRacGAP inhibitor project, dose response (AID 624300); type: functional
[14] = target: Intestinal-type alkaline phosphatase (Homo sapiens, UniProt P09923); experiment: Dose Response confirmation of uHTS hits from a small molecule inhibitors of human intestinal alkaline phosphatase via a luminescent assay. [Related pubchem assays (depositor defined):AID2544, AID2574]; type: functional
Intestinal-type alkaline phosphatase, sequence (P09923 whole entry): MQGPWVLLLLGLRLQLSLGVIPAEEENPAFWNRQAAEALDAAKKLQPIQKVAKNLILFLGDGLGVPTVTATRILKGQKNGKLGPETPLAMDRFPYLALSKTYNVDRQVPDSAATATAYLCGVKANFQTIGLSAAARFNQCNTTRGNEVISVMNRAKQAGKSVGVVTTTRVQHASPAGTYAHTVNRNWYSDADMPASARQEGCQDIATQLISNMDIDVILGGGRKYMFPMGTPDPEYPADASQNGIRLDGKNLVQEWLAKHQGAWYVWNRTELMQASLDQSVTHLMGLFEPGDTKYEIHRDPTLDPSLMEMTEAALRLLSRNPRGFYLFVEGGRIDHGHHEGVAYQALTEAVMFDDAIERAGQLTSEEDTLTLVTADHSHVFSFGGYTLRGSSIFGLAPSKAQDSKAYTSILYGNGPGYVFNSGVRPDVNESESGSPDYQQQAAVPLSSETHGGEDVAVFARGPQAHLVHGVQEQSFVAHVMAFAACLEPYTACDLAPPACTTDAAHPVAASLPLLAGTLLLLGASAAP

SMILES: COC(=O)C(NC(=O)C(C)NC(=O)OCc1ccccc1)C(C)C (centres undefined)
AC50 [1]: 70.8 µM (active)
AC50 [2]: 68.2 µM (active)

SMILES: O=C1CSC(NC(=O)N2c3ccccc3Sc3ccccc32)=N1
EC50 [3]: > 180 µM (inactive)
EC50 [4]: 2.32 µM (active)
EC50 [5]: > 150 µM (inactive)
AC50 [6]: 0.335 µM (active)
EC50 [7]: > 150 µM (inactive)
IC50 [8]: 0.278 µM (active)

SMILES: COc1ccc(OC)c(NC(=O)c2[nH]c(C)c(C(C)=O)c2C)c1
IC50 [9]: > 47.1 µM (inactive)
IC50 [10]: > 80 µM (inactive)
EC50 [11]: > 53 µM (inactive)
IC50 [12]: > 100 µM (active)

IC50 [14]: > 100 µM (inactive)
SMILES: CC(=O)Nc1cccc(-c2csc(Nc3ccccn3)n2)c1
CC50 [13]: 94.2 µM (active)

From ChEMBL document CHEMBL1201862, “PubChem BioAssay data set” (2004)
